Usually solubility stands for the dissolved amount per volume that the medium holds.

≈ marks a conversion by molar mass, not a printed value. Like-named read-outs stand apart in the source and are kept apart here.

Data set [1] is described as follows: Solubility in phosphate buffer solution of pH 7.4 at room temperature. The class given is physicochemical. As to conditions: for solubility: room temperature; for solubility in the phosphate buffer solution (in words): phosphate buffer solution (0.05 M KH2PO4-NaOH) at pH 7.4.
The test system of data set [2] is Leukemia L-1210 cells. Nature of the data set: Test 1: antitumor activity against leukemia induced in CDF1 mice by Leukemia L-1210 cells (life-span increase). Format: in vivo. Conditions: intraperitoneally once per day for 9 consecutive days, observation 60 days. The procedure: Antitumor activities against leukemia in CDF, mice as induced by mouse leukemia, Leukemia L-1210 cells
After an elapsed time of 24 hours, a compounds of the formula (I) of this invention to be tested was administered intraperitoneally for 9 consecutive days once per day. Observation was made for 60 days, where survival days of each mouse tested were recorded. In comparison with the control test wherein mice were treated with the administration of physiological saline alone, the increase (%) in the life-span of the treated mice was calculated as T/C %, where T is the mean survival days of the treated animals and C is the mean survival days of the untreated control animals. For the comparison, daunomycin and adriamycin were also tested in the same manner.

For data set [3], the system named is Leukemia L-1210 cells. Briefly: Test 3: antitumor activity against leukemia induced in CDF1 mice by Leukemia L-1210 cells (procedure of Test 1 repeated). Conditions: intraperitoneally once per day for 9 consecutive days, observation 60 days. Format: in vivo. The procedure: Antitumor activities against leukemia in CDF1 mice as induced by mouse leukemia, Leukemia L-1210 cells
To evaluate the antitumor effects of the compounds of the formula (I') according to the sixth aspect of this invention against experimental tumors in animals, the procedure of Test 1 given hereinbefore is repeated. Thus, CDF1 mice were intraperitoneally transplanted with cells of Leukemia L-1210 (at a dose of 1 x 10^5 cells/mouse). After an elapsed time of 24 hours from the tumor transplantation, a test compound of the formula (I') of the sixth aspect invention to be evaluated was administered intraperitoneally for 9 consecutive days once per day. Observation was made for 60 day, where survival days of each mouse tested were recorded. In comparison with the control test wherein mice were treated with the administration of physiological saline alone, the increase (%) in the life-span of the treated mice was calculated as T/C %, where T is the mean survival days of the treated animals and C is the mean survival days of the untreated control animals. For the comparison, daunomycin and adriamycin were also tested in the same manner.

The subject of data set [4] is mouse leukemia P 388/S (sensitive). Nature of the data set: Test 2: growth inhibition of cultured mouse leukemia cells, 72 hours incubation. Format: cell-based. Conditions: P 388/S cells. The procedure: (§1) 7-O-(2,6-Dideoxy-2-fluoro-«-L-mannopyranosyl)adriamycinone 14-O-hemipimelate, which is a compounds according to this invention, was then added at varying concentrations. The incubation of the cells was thereafter continued for 72 hours to measure the 50% inhibitory concentration (ICso, ng/m t) of the test compound against the growth of the tunmor cells.

The next data set concerns P388/ADR (resistant). The data set is described as above. The class given is cell-based. Conditions: P 388/ADR cells. The procedure: as §1
[5] abbreviates: aqueous buffer, compounds (Ic), phosphate buffer solution of pH 7.4 (0.05 M KH2PO4-NaOH), read-out: Solubility.
Where [6] appears, read: aqueous buffer, compounds (I'-c) or (I'-d), phosphate buffer solution of pH 7.4 (0.05M KH2PO4-NaOH), read-out: Solubility.

Regarding `C[C@@H]1O[C@@H](O[C@H]2C[C@](O)(C(=O)COC(=O)CCCCCC(=O)O)Cc3c(O)c4c(c(O)c32)C(=O)c2ccccc2C4=O)[C@H](F)[C@H](O)[C@H]1O` [Example 11, 7-O-(2,6-dideoxy-2-fluoro-a-L-mannopyranosyl)-4-demethoxyadriamycinone 14-0-hemipimelate], in data set [1] (setting [5]), the solubility was less than 1 mg/mL. In addition, the “% Increase in life-span (T/C, %)” value in the data set with Leukemia L-1210 cells [2] (Dose 0.15 mg/kg/day) is recorded as 121%; with Leukemia L-1210 cells [2] (Dose 0.3 mg/kg/day), greater than 363%; in the data set on Leukemia L-1210 cells [2] (Dose 0.6 mg/kg/day), 175%; in the data set with Leukemia L-1210 cells [2] (Dose 1.25 mg/kg/day) it was 111%.
As for `CCCCC(=O)OCC(=O)[C@]1(O)Cc2c(O)c3c(c(O)c2[C@@H](O[C@@H]2O[C@@H](C)[C@@H](O)[C@@H](O)[C@H]2F)C1)C(=O)c1ccccc1C3=O` [Example 14, 4-demothoxy-7-O-(2,6-dideoxy-2-fluoro-α-L-talopyranosyl)adriamycinone 14-0-valerate], the solubility in data set [1] (setting [6]) was less than 1 mg/mL.
On to `COc1cccc2c1C(=O)c1c(O)c3c(c(O)c1C2=O)C[C@@](O)(C(=O)COC(=O)CCCCCCC(=O)O)C[C@@H]3O[C@@H]1O[C@@H](C)[C@H](O)[C@@H](O)[C@H]1F` [Example 10, 7-O-(2,6-dideoxy-2-fluoro-α-L-mannopyranosyl)adriamycinone 14-0-hemisuberate], for which, in data set [1] (setting [5]), the solubility was 30 mg/mL (≈ 41700 µM).
In the case of `C[C@@H]1O[C@@H](O[C@H]2C[C@](O)(C(=O)COC(=O)CCCCCC(=O)O)Cc3c(O)c4c(c(O)c32)C(=O)c2ccccc2C4=O)[C@H](F)[C@H](O)[C@@H]1O` [Example 18, 4-demethoxy-7-O-(2,6-dideoxy-2-fluoro-a-L-talopyranosyl)adriamycinone 14-0-hemipimelate], the solubility in data set [1] (setting [6]) was less than 1 mg/mL. Moreover, in data set [1], the “solubility in the phosphate buffer solution (in words)” value is on record as “scarcely soluble”.
`COc1cccc2c1C(=O)c1c(O)c3c(c(O)c1C2=O)C[C@@](O)(C(=O)COC(=O)CCCC(=O)O)C[C@@H]3O[C@@H]1O[C@@H](C)[C@H](O)[C@@H](O)[C@H]1F` [Example 7, 7-0-(2,6-dideoxy-2-fluoro-a-L-. mannopyranosyl)adriamycinone 14-0-hemiglutarate]: the solubility in data set [1] (setting [5]) worked out at 28 mg/mL (≈ 41400 µM).
Consider “4-demethoxy-7-O-(2,6-dideoxy-2-fluoro-α-L-talopyranosyl)adriamycinone 14-0-hemisuberate [Example 19]”, for which the “solubility” value in data set [1] (compounds (I'-c) or (I'-d), phosphate buffer solution of pH 7.4 (0.05M KH2PO4-NaOH)) is less than 1 mg/mL. In data set [1], the “solubility in the phosphate buffer solution (in words)” value was “scarcely soluble”. In addition, the “% Increase in life-span (T/C, %)” value was determined as 93% with Leukemia L-1210 cells [3] (Dose 0.04 mg/kg/day); 96% with Leukemia L-1210 cells [3] (Dose 0.08 mg/kg/day); 138% with Leukemia L-1210 cells [3] (Dose 0.15 mg/kg/day); 175% in the data set on Leukemia L-1210 cells [3] (Dose 0.3 mg/kg/day); 245% in the data set with Leukemia L-1210 cells [3] (Dose 0.6 mg/kg/day); 158% with Leukemia L-1210 cells [3] (Dose 1.25 mg/kg/day).
As for `C[C@@H]1O[C@@H](O[C@H]2C[C@](O)(C(=O)COC(=O)CCCCC(=O)O)Cc3c(O)c4c(c(O)c32)C(=O)c2ccccc2C4=O)[C@H](F)[C@H](O)[C@@H]1O` [Example 17, 4-demethoxy-7-O-(2,6-dideoxy-2-fluoro-α-L-talopyranosyl)adriamycinone 14-0-hemiadipate], in data set [1] (setting [6]), the solubility turned out to be 6 mg/mL (≈ 9080 µM). Moreover, the “% Increase in life-span (T/C, %)” value with Leukemia L-1210 cells [3] (Dose 0.04 mg/kg/day) is 99%; with Leukemia L-1210 cells [3] (Dose 0.08 mg/kg/day) it was 99%; with Leukemia L-1210 cells [3] (Dose 0.15 mg/kg/day) it was 130%; in the data set with Leukemia L-1210 cells [3] (Dose 0.3 mg/kg/day), 166%; with Leukemia L-1210 cells [3] (Dose 0.6 mg/kg/day) it was 242%; with Leukemia L-1210 cells [3] (Dose 1.25 mg/kg/day), greater than 296%.
In the case of `COc1cccc2c1C(=O)c1c(O)c3c(c(O)c1C2=O)C[C@@](O)(C(=O)COC(=O)CCCCCC(=O)O)C[C@@H]3O[C@@H]1O[C@@H](C)[C@H](O)[C@@H](O)[C@H]1F` [Example 9], the IC50 worked out at 0.3 ng/mL (≈ 0.000426 µM) in data set [4] (Mus musculus, P388/S, read-out: IC50 (ng/mℓ) P 388/S) and 39.8 ng/mL (≈ 0.0565 µM) in the data set on P388/ADR (resistant) (Mus musculus, P388/ADR, read-out: IC50 (ng/mℓ) P 388/ADR). In addition, the solubility in data set [1] (setting [5]) is 32 mg/mL (≈ 45400 µM). For the same compound, the “% Increase in life-span (T/C, %)” value is 123% in the data set with Leukemia L-1210 cells [2] (Dose 0.15 mg/kg/day); 274% in the data set with Leukemia L-1210 cells [2] (Dose 0.3 mg/kg/day); greater than 329% in the data set on Leukemia L-1210 cells [2] (Dose 0.6 mg/kg/day); greater than 346% with Leukemia L-1210 cells [2] (Dose 1.25 mg/kg/day); greater than 686% in the data set on Leukemia L-1210 cells [2] (Dose 2.5 mg/kg/day); greater than 463% in the data set on Leukemia L-1210 cells [2] (Dose 5 mg/kg/day).
Consider `COc1cccc2c1C(=O)c1c(O)c3c(c(O)c1C2=O)C[C@@](O)(C(=O)COC(=O)CCCCCC(=O)O)C[C@@H]3O[C@@H]1O[C@@H](C)[C@@H](O)[C@@H](O)[C@H]1F` [Referential compound, 7-O-(2,6-dideoxy-2-fluoro-«-L-talopyranosyl)-adriamycinone 14-0-hemipimelate, reference compound], for which the “IC50 (ng/mℓ) P 388/S” value in data set [4] is 3.3 ng/mL (≈ 0.00468 µM). The “IC50 (ng/mℓ) P 388/ADR” value in the data set on P388/ADR (resistant) is 485 ng/mL (≈ 0.688 µM).

The values are drawn from patent publication EP0335369A2, “New anthracycline derivatives and processes for the preparation of the same” (priority 1988, dated 1989).
